Data set [1] can be described thus: Test on inhibition of Vero cell growth (XTT). Format: cell-based. Particulars: African green monkey, Vero cells, 3 days culture, read-out: CC50 (concentration inhibiting 50% of cell growth). The procedure:
Each test compound was dissolved in dimethyl sulfoxide, adjusted to each concentration using E'MEM, and then dispensed at 0.1 mL/well to 96-well microplates. The Vero cell suspension was prepared at 3×10^4 cells/mL using E'MEM supplemented with 20% FBS, inoculated thereto at 0.1 mL/well, and cultured at 37° C. for 3 days under 5% CO2. At the completion of the culture, PBS supplemented with 1 mg/mL 2,3-bis-(2-methoxy-4-nitro-5-sulfophenyl)-5-((phenylamino)carbonyl)-2H-tetrazolium inner salt monosodium salt (XTT) and 25 μM phenazine methosulfate (PMS) was prepared and added thereto at 50 μL/well. Approximately 2 hours later, the absorbance at 450 nm was measured using a microplate reader.
In general terms: Tetrazolium dyes change colour on reduction, which living cells bring about.

For data set [2], the system named is Pseudomonas aeruginosa ATCC27853 strain. Briefly: Antibacterial activity, MIC by broth microdilution (CLSI). Format: cell-based. The method, then:
(§1) The minimum inhibitory concentration (MIC) was measured according to the CLSI (Clinical and Laboratory Standards Institute) standard method using a broth microdilution method given below. The bacteria used were a Pseudomonas aeruginosa ATCC27853 strain, an Escherichia coli ATCC25922 strain and a Klebsiella pneumoniae ATCC13883 strain. Test bacterial cells of each strain cultured overnight in a Mueller-Hinton agar medium were scraped off and suspended at the McFarland 0.5 standard, and this suspension was diluted 10-fold to prepare an inoculum solution. The inoculum solution (0.005 mL) was inoculated to a cation-adjusted Mueller-Hinton medium containing each test compound and cultured at 35° C. for 16 to 20 hours. The minimum drug concentration at which bacterial growth was not visible to the naked eye was defined as MIC.

The target in data set [3] is T1, Pseudomonas aeruginosa LpxC enzyme (Pseudomonas aeruginosa, UniProt P47205).
T1 construct: made in house; host or cells: Escherichia coli
T1 sequence (P47205 1-303): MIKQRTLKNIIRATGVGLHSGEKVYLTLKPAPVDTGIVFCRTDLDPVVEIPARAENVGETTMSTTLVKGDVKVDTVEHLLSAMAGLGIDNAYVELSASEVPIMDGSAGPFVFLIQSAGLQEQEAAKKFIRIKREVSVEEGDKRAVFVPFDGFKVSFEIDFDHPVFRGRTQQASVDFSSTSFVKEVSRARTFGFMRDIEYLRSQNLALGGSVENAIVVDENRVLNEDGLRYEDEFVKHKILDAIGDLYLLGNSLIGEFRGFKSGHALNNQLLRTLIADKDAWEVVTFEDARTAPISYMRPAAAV
The data set is described as follows: Test to evaluate Pseudomonas aeruginosa LpxC enzyme inhibitory activity. It is filed as biochemical. The procedure:
The Pseudomonas aeruginosa LpxC enzyme activity was measured by reacting LpxC with its substrate UDP-3-O—(R-3-hydroxydecanoyl)-N-acetylglucosamine and measuring the amount of the reaction product by the quantification of an amino group present in the product. This measurement was carried out according to a method described in, for example, International Publication No. WO 11/132712 pamphlet or a method similar thereto.
Specifically, to the Pseudomonas aeruginosa LpxC enzyme (which was obtained by preparing chromosomal DNA from Pseudomonas aeruginosa, obtaining the Pseudomonas aeruginosa LpxC gene by PCR (polymerase chain reaction) using LpxC-specific primers, and incorporating this gene into a vector, followed by gene expression using Escherichia coli), 20 μmol/L UDP-3-O—(R-3-hydroxydecanoyl)-N-acetylglucosamine (Wako Pure Chemical Industries, Ltd.) was added, and the mixture was incubated at 25° C. for 1 hour. This reaction was carried out in a 40 mmol/L HEPES buffer solution (pH 8.0) containing 0.02% Brij 35 and 80 μmol/L dithiothreitol. The reaction was terminated by the addition of 20% acetic acid (final concentration: 0.95%) to the reaction solution. Then, fluorescamine (final concentration: 1.6 mg/mL) dissolved in anhydrous dioxane was added thereto. The amount of the reaction product was detected at an excitation wavelength/fluorescence wavelength=390 nm/495 nm. Each test compound was allowed to coexist at various concentrations in the reaction to obtain an inhibition curve.

In data set [4] the test system is Klebsiella pneumoniae ATCC13883 strain. The data set is described as follows: Antibacterial activity, MIC by broth microdilution (CLSI). It is filed as cell-based. The method, then:
as §1
A general note: In broth dilution the organism is exposed to a series of concentrations in liquid medium.

Data set [5] concerns Escherichia coli ATCC25922 strain. Described as above. Format: cell-based. The procedure:
as §1

For orientation: MIC means the least concentration at which growth counts as inhibited. Usually pIC50 stands for −log10 of the IC50, conventionally taken in molar units.

pIC50: −log10 of the molar value. Converted amounts (≈) assume the structure as drawn. Bounds are passed on as bounds.

In the case of `CNC(=O)[C@@](C)(C(=O)NO)N(C)C(=O)c1ccc(C#Cc2ccc(C(O)CO)cc2)cc1` (stereo partly drawn) [Example 3, (2S)-2-((4-((4-(1,2-dihydroxyethyl)phenyl)ethynyl)benzoyl)(methyl)amino)-N-hydroxy-N′,2-dimethyl-malonamide], the CC50 at 3 days in data set [1] was no less than 100 mg/L. Besides, inhibition of growth in data set [2] (MIC) required 1 mg/L (≈ 2.28 µM). Moreover, the negative-log IC50 (pIC50) in data set [3] was greater than 7.30.

For `CNC(=O)[C@@](C)(C(=O)NO)N(C)C(=O)c1ccc(C#Cc2ccc(C(O)COC)cc2)cc1` (stereo partly drawn) [Example 13, (2S)—N-hydroxy-2-((4-((4-(1-hydroxy-2-methoxyethyl)phenyl)ethynyl)benzoyl)(methyl)amino)-N′,2-dimethyl-malonamide], the CC50 at 3 days in data set [1] is no less than 100 mg/L. The MIC in data set [2] came out at 1 mg/L (≈ 2.21 µM); in data set [4], 1 mg/L (≈ 2.21 µM); in data set [5], 0.25 mg/L (≈ 0.551 µM).

Consider `CNC(=O)[C@@](C)(C(=O)NO)N(C)C(=O)c1ccc(C#Cc2ccc(C(C)O)cc2)cc1` (stereo partly drawn) [Example 16, (2S)—N-hydroxy-2-((4-((4-(1-hydroxyethyl)phenyl)ethynyl)benzoyl)(methyl)amino)-N′,2-dimethyl-malonamide], for which the MIC in data set [2] is 1 mg/L (≈ 2.36 µM); in data set [4], 1 mg/L (≈ 2.36 µM); in data set [5], 0.25 mg/L (≈ 0.59 µM). In data set [3], this compound showed a pIC50 greater than 7.30.

As for `CNC(=O)[C@@](C)(C(=O)NO)N(C)C(=O)c1ccc(C#Cc2ccc(C(O)CCO)cc2)cc1` (stereo partly drawn) [Example 17, (2S)-2-((4-((4-(1,3-dihydroxypropyl)phenyl)ethynyl)benzoyl)(methyl)amino)-N-hydroxy-N′,2-dimethylmalonamide], the CC50 at 3 days in data set [1] was no less than 100 mg/L. This compound also yielded an MIC in data set [2] of 1 mg/L (≈ 2.21 µM). In addition, the pIC50 in data set [3] is greater than 7.30.

As to `CNC(=O)[C@@](C)(C(=O)NO)N(C)C(=O)c1ccc(C#Cc2ccc([C@H](O)COCCO)cc2)cc1` [Example 24, (2S)—N-hydroxy-2-((4-((4-((1S)-1-hydroxy-2-(2-hydroxyethoxy)ethyl)phenyl)ethynyl)benzoyl)(methyl)amino)-N′,2-dimethyl-malonamide], the CC50 at 3 days in data set [1] was no less than 100 mg/L. Further, the results for the minimum inhibitory concentration (MIC) in data set [2] and in data set [5] were 1 mg/L (≈ 2.07 µM) and 0.5 mg/L (≈ 1.03 µM), respectively. The same compound gave a pIC50 in data set [3] greater than 7.30.

`CNC(=O)[C@@](C)(C(=O)NO)N(C)C(=O)c1ccc(C#Cc2ccc([C@H](O)CCO)cc2)cc1` [Example 25, (2S)-2-((4-((4-((1R)-1,3-dihydroxypropyl)phenyl)ethynyl)benzoyl)(methyl)amino)-N-hydroxy-N′,2-dimethyl-malonamide]: the CC50 at 3 days in data set [1] is no less than 100 mg/L. Moreover, the minimal inhibitory concentration (MIC) in data set [2] and in data set [5] was 0.5 mg/L (≈ 1.1 µM) each time. In data set [3], this compound gave a pIC50 greater than 7.30.

Consider `CNC(=O)[C@@](C)(C(=O)NO)N(C)C(=O)c1ccc(C#Cc2ccc([C@H](O)[C@H](C)O)cc2)cc1` [Example 33, (2S)-2-((4-((4-((1S,2S)-1,2-dihydroxypropyl)phenyl)ethynyl)benzoyl)(methyl)amino)-N-hydroxy-N′,2-dimethylmalonamide], for which the CC50 at 3 days in data set [1] is no less than 100 mg/L. Further, the minimal inhibitory concentration (MIC) in data set [2] turned out to be 1 mg/L (≈ 2.21 µM); in data set [5] it was 0.5 mg/L (≈ 1.1 µM). This compound showed a negative logarithm of the IC50 (pIC50) in data set [3] greater than 7.30.

In the case of `CNC(=O)[C@@](C)(C(=O)NO)N(C)C(=O)c1ccc(C#Cc2ccc(C(O)CCCO)cc2)cc1` (stereo partly drawn) [Example 35, (2S)-2-((4-((4-(1,4-dihydroxybutyl)phenyl)ethynyl)benzoyl)(methyl)amino)-N-hydroxy-N′,2-dimethyl-malonamide], in data set [1], the CC50 at 3 days was no less than 100 mg/L. In addition, the MIC in data set [2] and in data set [4] was 1 mg/L (≈ 2.14 µM) in each case. In addition, the negative logarithm of the IC50 (pIC50) in data set [3] is greater than 7.30.

Consider `CNC(=O)[C@@](C)(C(=O)NO)N(C)C(=O)c1ccc(C#Cc2ccc([C@H](O)/C=C/CO)cc2)cc1` [Example 40, (2S)-2-((4-((4-((1R,2E)-1,4-dihydroxybut-2-ene-1-yl)phenyl)ethynyl)benzoyl)(methyl)amino)-N-hydroxy-N′,2-dimethyl-malonamide], for which the minimal inhibitory concentration (MIC) in data set [2] turned out to be 1 mg/L (≈ 2.15 µM); in data set [4] it was 1 mg/L (≈ 2.15 µM); in data set [5] it was 0.5 mg/L (≈ 1.07 µM). Besides, the pIC50 in data set [3] was greater than 7.30.

The record behind these values is patent US9862676B2, “Hydroxamic acid derivative or salt thereof” (TOYAMA CHEMICAL CO., LTD., priority 2013, dated 2018).
